Here are results for three compounds from patent US20100286082A1, “RIBOSWITCHES AND METHODS AND COMPOSITIONS FOR USE OF AND WITH RIBOSWITCHES” (Yale University, priority 2007, published 2010).

Experiment [1] relates to 17-90 RNA. In words: In-line probing of 17-90 RNA (preQ1-II aptamer). In kind it is binding, Streptococcus pneumoniae R6. The following applies: compound concentrations up to 1 mM.
The subject of another experiment is 17-90 RNA mutant U41. In words: In-line probing of mutant (U41) 17-90 RNA. The following applies: compared with wild type. In kind it is binding, Streptococcus pneumoniae R6.
The target of a further experiment is 68 metH RNA. The experiment is described as follows: In-line probing of 68 metH RNA (SAH aptamer). In kind it is binding, Dechloromonas aromatica. The following applies: in-line probing; read-out: apparent dissociation constant KD. The protocol: iii. In-Line Probing Analysis In-line probing assays were carried out essentially as previously described (Soukup and Breaker, 1999). 5′^32P-labeled RNAs were incubated at room temperature for approximately 40 h in 10 μl volumes containing 50 mM Tris-HCl (pH 8.3 at 25° C.), 20 mM MgCl2, 100 mM KCl, and included test compounds at the concentrations indicated. Spontaneous cleavage products were separated by denaturing 10% PAGE, visualized using a Phosphorlmager (Molecular Dynamics), and quantified using SAFA v1.1 software (Das et al., 2005). The amount of RNA cleaved at each nucleotide position was obtained from SAFA analysis, which automatically determines reference nucleotide positions with invariant levels of spontaneous cleavage to correct for different amounts loaded in each lane. Individual band intensities at each modulated site were summed and normalized to obtain values for the fraction of RNA that was structurally modulated, assuming that there was no modulation in the absence of ligand and maximal modulation in the presence of the highest concentration of ligand. Values for the apparent dissociation constant (KD) were determined by fitting the plot of the fraction modulated (F), versus the ligand concentration, [L], at all three indicated modulation sites to the equation F [L]/([L]+KD) using SigmaPlot 9 software (Systat Software, Inc.).

Experiment [2] has as its system SAH riboswitch of the ahcY 5′-UTR fused to lacZ (WT reporter strain). The experiment is described as follows: In vivo reporter gene expression, ahcY 5′ UTR-lacZ translational fusion. In kind it is cell-based, Pseudomonas syringae. Particulars: Vogel-Bonner minimal medium supplemented with 250 μM compound. The protocol:
An in vivo gene control assay was conducted wherein the IGR encompassing the 5′ UTR of the ahcY gene in P. syringae was fused immediately upstream of a lacZ coding sequence. This construct retained the start codon of the ahcY gene, which was fused in frame with the reporter gene ORF. The resulting translational fusion vector was transformed into P. syringae to produce the wild-type (WT) reporter strain. Similarly, a series of mutant reporter strains were constructed that are expected to disrupt or restore aptamer function (FIG. 13A). Transformed P. syringae strains subsequently were grown in either King's medium B (rich) or Vogel-Bonner medium (minimal), and the reporter expression levels of the mutant constructs were compared to the results from the WT reporter construct (FIG. 13B).
Nucleotides ˜367 to +6 relative to the predicted ahcY translation start site (GenBank accession: NC—004578.1; nucleotides 5,771,072 to 5,771,444) were amplified as a BamHI-HindIII fragment by whole-cell PCR of Pseudomonas syringae pv. tomato str. DC3000. The PCR product was cloned into the translational fusion vector pRA301 (Akakura and Winans, 2002) immediately upstream of the lacZ reporter gene. This reporter vector is stably maintained in pseudomonas since it harbors the origin of replication rep and stability region sta derived from the pseudomonas aeruginosa vector pVS1 (Itoh et al., 1984). […]

In experiment [3] the target is 132 Sc RNA (SAM-IV riboswitch). The experiment is described as follows: In-line probing of 132 Sc RNA (SAM-IV). In kind it is binding, Streptomyces coelicolor. The text has this: DNA corresponding to the aptamer in the pEZ35 plasmid (above) was amplified by PCR with primers 5′-[…]
Experiment [4] concerns the target SAM-I riboswitch 124 yitJ. The experiment is described as follows: SAM-I riboswitch binding (literature). Particulars: ratio of the KD for the compound to that for SAM.
A further experiment concerns SAM-II aptamer 156 metA. The following applies: representative of SAM-II aptamers, Lim et al., 2006b; cited from earlier work.
For experiment [5], the target named is SAM-I riboswitch 124 yitJ. The following applies: cited from earlier work.
For experiment [6], the system named is 17-90 RNA. In words: Equilibrium dialysis of 3H-preQ1 with 17-90 RNA. In kind it is binding, Streptococcus pneumoniae R6. Particulars: excess unlabeled compound added to chamber a after equilibration. Here is the method: Equilibrium dialysis experiments were preformed with ^3H-preQ1 and the 17-90 RNA construct to confirm ligand binding and the specificity of molecular recognition using a different methodology. For equilibrium dialysis, ^3H-preQ1 was added to chamber a of an equilibrium dialysis apparatus, and excess RNA is added to chamber b. The two chambers are separated by a 5,000 Dalton molecular weight cut off dialysis membrane (FIG. 18A). The solutions were allowed to equilibrate and the fraction of tritium in each chamber was subsequently measured by liquid scintillation counting. […] When ^3H-preQ1 ([…]) is equilibrated without RNA, or with an RNA that lacks the ability to form the P3 stem (1-81 RNA), the ^3H label distributes evenly (b/a ˜1). […]
A 30 μl mixture containing 50 mM Tris-HCl (pH 8.3 at 23° C.), 20 mM MgCl2, 100 mM KCl, and 1 μM of ^3H-labeled preQ1 was placed in one chamber of a DispoEquilibrium Dialyzer (ED-1, Harvard Bioscience) and the same volume containing the same constituents minus the ^3H-labeled preQ1 was added to the opposing side. When noted, the latter solution also contained either 5 μM 17-90 RNA or 5 μM 1-81 RNA. After equilibrating for 14 hours, a 5 μl aliquot was removed from each side of the apparatus to determine the distribution of ^3H-label in the two chambers by liquid scintillation counting. […]

For `Nc1nc(N)c2[nH]cnc2n1` [DAP, 2,6-diaminopurine], in the experiment on 17-90 RNA [1], the “binding by 17-90 RNA” value is on record as “near identical KD values”. Moreover, in the experiment with 17-90 RNA mutant U41, the “binding by the U41 mutant” value is recorded as “essentially the same affinity as wild type”.
Turning to `Nc1ncnc2c1ncn2[C@@H]1O[C@H](CSCC[C@H](N)C(=O)O)[C@@H](O)[C@H]1O` [SAH, S-adenosylhomocysteine], the Kd at 68 metH RNA is around 20 nM; in [3] (in-line probing, 132 Sc RNA, read-out: apparent dissociation constant (KD)), 20 µM; in [5] (calculated previously (Lim et al. 2006), read-out: KD [compound] (nM) SAM-I) it was 400 nM. In [2], the riboswitch-mediated reporter expression result is reported as “only slightly increases reporter expression”. For the same compound, the “KD [compound]/ KD [SAM] SAM-IV” value in experiment [3] (ratio of the KD for the compound to that for SAM) was determined as 133. In experiment [4], the “KD [compound]/ KD [SAM] SAM-I” value came out at 80. The “discrimination against SAH” value in the experiment with SAM-II aptamer 156 metA is recorded as “more than 1000 fold”; in experiment [5] (representative of SAM-I aptamers, Lim et al., 2006b), around 80 fold.
For the compound `Nc1nc2nc[nH]c2c(=O)[nH]1` [guanine], the “competition with 3H-preQ1 (distribution of 3H label)” value in the experiment on 17-90 RNA [6] is recorded as “has no effect on the distribution of ^3H”.
